# Test system: subjects with advanced malignancies
# Experiment: Phase 1 dose escalation: toxicity, safety and tolerability (DLT, MAD, RP2D, AEs)
# [1] = 7.11 mg/m^2 (n = 7), All grades
# Method: Subjects continued on treatment until there was disease progression, unacceptable toxicity, or the subject withdrew consent. The trial employed an accelerated titration design [16] starting at a dose of 0.33 mg/m^2 (one-sixth of the highest nontoxic dose in dogs).
# the dose was doubled in sequential subjects until a DLT was observed or a subject experienced grade 2 toxicity [16]. In the case of an observed grade 2 toxicity, a second subject was enrolled at the same dose level. If the second subject also experienced a grade 2 toxicity, 2 additional subjects were accrued at that dose level for a total of 4 subjects. […] Each subject was allocated to only a single dose level of drug. Dose delay or modification was permitted based on laboratory and clinical assessment performed on the day of treatment.
# Dose-limiting toxicities were determined during the first cycle for each dose level. A DLT was defined as any grade 3 or 4 hematologic toxicity lasting for at least 1 week, or as any grade 3 or 4 nonhematologic toxicity. […] Normal alkaline phosphatase level (< grade 1) at screening that rose to greater than or equal to grade 3; grade 1 or 2 alkaline phosphatase level at screening that rose to grade 4; grade 1 or 2 aspartate aminotransferase (AST) and/or alanine aminotransferase (ALT) levels at screening that doubled from baseline to become greater than or equal to grade 3; and any other abnormal nonhematology laboratory value greater than or equal to grade 3 that required medical intervention to treat, led to hospitalization, or persisted for at least 1 week were also considered DLTs.
# Adverse events were graded based on the National Cancer Institute Common Terminology Criteria for Adverse Events (NCI CTCAE version 3.0) and were coded using the Medical Dictionary for Regulatory Activities (MedDRA version 13.0).
compound,measurement,setting,value
CCc1cnn2c(NCc3ccc[n+]([O-])c3)cc(N3CCCC[C@H]3CCO)nc12 [dinaciclib],TEAE: Abdominal distension,[1],1 (14) n (%)
same,TEAE: Abdominal pain,[1],3 (43) n (%)
same,TEAE: Anemia,[1],3 (43) n (%)
same,TEAE: Asthenia,[1],2 (29) n (%)
same,TEAE: Back pain,[1],1 (14) n (%)
same,TEAE: Constipation,[1],1 (14) n (%)
same,TEAE: Cough,[1],0 n (%)
same,TEAE: Decreased appetite,[1],2 (29) n (%)
same,TEAE: Dehydration,[1],1 (14) n (%)
same,TEAE: Diarrhea,[1],1 (14) n (%)
same,TEAE: Dizziness,[1],3 (43) n (%)
same,TEAE: Dyspnea,[1],3 (43) n (%)
same,TEAE: Fatigue,[1],3 (43) n (%)
same,TEAE: Flatulence,[1],2 (29) n (%)
same,TEAE: Hyperbilirubinemia,[1],0 n (%)
same,TEAE: Hyperglycemia,[1],0 n (%)
same,TEAE: Hyperuricemia,[1],0 n (%)
same,TEAE: Hypokalemia,[1],1 (14) n (%)
same,TEAE: Hypophosphatemia,[1],0 n (%)
same,TEAE: Increased ALP,[1],0 n (%)
same,TEAE: Increased ALT,[1],0 n (%)
same,TEAE: Increased AST,[1],0 n (%)
same,TEAE: Nausea,[1],5 (71) n (%)
same,TEAE: Neutropenia,[1],0 n (%)
same,TEAE: Peripheral edema,[1],1 (14) n (%)
same,TEAE: Pyrexia,[1],1 (14) n (%)
same,TEAE: Subjects with any AE,[1],7 (100) n (%)
same,TEAE: Urinary tract infection,[1],2 (29) n (%)
same,TEAE: Vomiting,[1],2 (29) n (%)
same,TEAE: Weight decreased,[1],1 (14) n (%)
same,TEAE: Abdominal distension,"7.11 mg/m^2 (n = 7), Grade 3–4",0 n (%)
same,TEAE: Abdominal pain,"7.11 mg/m^2 (n = 7), Grade 3–4",1 (14) n (%)
same,TEAE: Anemia,"7.11 mg/m^2 (n = 7), Grade 3–4",2 (29) n (%)
same,TEAE: Asthenia,"7.11 mg/m^2 (n = 7), Grade 3–4",0 n (%)
same,TEAE: Back pain,"7.11 mg/m^2 (n = 7), Grade 3–4",0 n (%)
same,TEAE: Constipation,"7.11 mg/m^2 (n = 7), Grade 3–4",0 n (%)
same,TEAE: Cough,"7.11 mg/m^2 (n = 7), Grade 3–4",0 n (%)
same,TEAE: Decreased appetite,"7.11 mg/m^2 (n = 7), Grade 3–4",0 n (%)
same,TEAE: Dehydration,"7.11 mg/m^2 (n = 7), Grade 3–4",0 n (%)
same,TEAE: Diarrhea,"7.11 mg/m^2 (n = 7), Grade 3–4",0 n (%)
same,TEAE: Dizziness,"7.11 mg/m^2 (n = 7), Grade 3–4",0 n (%)
same,TEAE: Dyspnea,"7.11 mg/m^2 (n = 7), Grade 3–4",1 (14) n (%)
same,TEAE: Fatigue,"7.11 mg/m^2 (n = 7), Grade 3–4",0 n (%)
same,TEAE: Flatulence,"7.11 mg/m^2 (n = 7), Grade 3–4",0 n (%)
same,TEAE: Hyperbilirubinemia,"7.11 mg/m^2 (n = 7), Grade 3–4",0 n (%)
same,TEAE: Hyperglycemia,"7.11 mg/m^2 (n = 7), Grade 3–4",0 n (%)
same,TEAE: Hyperuricemia,"7.11 mg/m^2 (n = 7), Grade 3–4",0 n (%)
same,TEAE: Hypokalemia,"7.11 mg/m^2 (n = 7), Grade 3–4",0 n (%)
same,TEAE: Hypophosphatemia,"7.11 mg/m^2 (n = 7), Grade 3–4",0 n (%)
same,TEAE: Increased ALP,"7.11 mg/m^2 (n = 7), Grade 3–4",0 n (%)
same,TEAE: Increased ALT,"7.11 mg/m^2 (n = 7), Grade 3–4",0 n (%)
same,TEAE: Increased AST,"7.11 mg/m^2 (n = 7), Grade 3–4",0 n (%)
same,TEAE: Nausea,"7.11 mg/m^2 (n = 7), Grade 3–4",0 n (%)
same,TEAE: Neutropenia,"7.11 mg/m^2 (n = 7), Grade 3–4",0 n (%)
same,TEAE: Peripheral edema,"7.11 mg/m^2 (n = 7), Grade 3–4",0 n (%)
same,TEAE: Pyrexia,"7.11 mg/m^2 (n = 7), Grade 3–4",0 n (%)
same,TEAE: Subjects with any AE,"7.11 mg/m^2 (n = 7), Grade 3–4",4 (57) n (%)
same,TEAE: Urinary tract infection,"7.11 mg/m^2 (n = 7), Grade 3–4",0 n (%)
same,TEAE: Vomiting,"7.11 mg/m^2 (n = 7), Grade 3–4",1 (14) n (%)
same,TEAE: Weight decreased,"7.11 mg/m^2 (n = 7), Grade 3–4",0 n (%)
same,TEAE: Abdominal distension,"10 mg/m^2 (n = 3), All grades",0 n (%)
same,TEAE: Abdominal pain,"10 mg/m^2 (n = 3), All grades",1 (33) n (%)
same,TEAE: Anemia,"10 mg/m^2 (n = 3), All grades",0 n (%)
same,TEAE: Asthenia,"10 mg/m^2 (n = 3), All grades",0 n (%)
same,TEAE: Back pain,"10 mg/m^2 (n = 3), All grades",0 n (%)
same,TEAE: Constipation,"10 mg/m^2 (n = 3), All grades",2 (67) n (%)
same,TEAE: Cough,"10 mg/m^2 (n = 3), All grades",0 n (%)
same,TEAE: Decreased appetite,"10 mg/m^2 (n = 3), All grades",0 n (%)
same,TEAE: Dehydration,"10 mg/m^2 (n = 3), All grades",0 n (%)
same,TEAE: Diarrhea,"10 mg/m^2 (n = 3), All grades",1 (33) n (%)
same,TEAE: Dizziness,"10 mg/m^2 (n = 3), All grades",0 n (%)
same,TEAE: Dyspnea,"10 mg/m^2 (n = 3), All grades",0 n (%)
same,TEAE: Fatigue,"10 mg/m^2 (n = 3), All grades",0 n (%)
same,TEAE: Flatulence,"10 mg/m^2 (n = 3), All grades",0 n (%)
same,TEAE: Hyperbilirubinemia,"10 mg/m^2 (n = 3), All grades",0 n (%)
same,TEAE: Hyperglycemia,"10 mg/m^2 (n = 3), All grades",1 (33) n (%)
same,TEAE: Hyperuricemia,"10 mg/m^2 (n = 3), All grades",0 n (%)
same,TEAE: Hypokalemia,"10 mg/m^2 (n = 3), All grades",1 (33) n (%)
same,TEAE: Hypophosphatemia,"10 mg/m^2 (n = 3), All grades",0 n (%)
same,TEAE: Increased ALP,"10 mg/m^2 (n = 3), All grades",0 n (%)
same,TEAE: Increased ALT,"10 mg/m^2 (n = 3), All grades",0 n (%)
same,TEAE: Increased AST,"10 mg/m^2 (n = 3), All grades",0 n (%)
same,TEAE: Nausea,"10 mg/m^2 (n = 3), All grades",1 (33) n (%)
same,TEAE: Neutropenia,"10 mg/m^2 (n = 3), All grades",1 (33) n (%)
same,TEAE: Peripheral edema,"10 mg/m^2 (n = 3), All grades",0 n (%)
same,TEAE: Pyrexia,"10 mg/m^2 (n = 3), All grades",0 n (%)
same,TEAE: Subjects with any AE,"10 mg/m^2 (n = 3), All grades",3 (100) n (%)
same,TEAE: Urinary tract infection,"10 mg/m^2 (n = 3), All grades",1 (33) n (%)
same,TEAE: Vomiting,"10 mg/m^2 (n = 3), All grades",2 (67) n (%)
same,TEAE: Weight decreased,"10 mg/m^2 (n = 3), All grades",0 n (%)
same,TEAE: Abdominal distension,"10 mg/m^2 (n = 3), Grade 3–4",0 n (%)
same,TEAE: Abdominal pain,"10 mg/m^2 (n = 3), Grade 3–4",0 n (%)
same,TEAE: Anemia,"10 mg/m^2 (n = 3), Grade 3–4",0 n (%)
same,TEAE: Asthenia,"10 mg/m^2 (n = 3), Grade 3–4",0 n (%)
same,TEAE: Back pain,"10 mg/m^2 (n = 3), Grade 3–4",0 n (%)
same,TEAE: Constipation,"10 mg/m^2 (n = 3), Grade 3–4",0 n (%)
same,TEAE: Cough,"10 mg/m^2 (n = 3), Grade 3–4",0 n (%)
same,TEAE: Decreased appetite,"10 mg/m^2 (n = 3), Grade 3–4",0 n (%)
same,TEAE: Dehydration,"10 mg/m^2 (n = 3), Grade 3–4",0 n (%)
same,TEAE: Diarrhea,"10 mg/m^2 (n = 3), Grade 3–4",0 n (%)
same,TEAE: Dizziness,"10 mg/m^2 (n = 3), Grade 3–4",0 n (%)
same,TEAE: Dyspnea,"10 mg/m^2 (n = 3), Grade 3–4",0 n (%)
same,TEAE: Fatigue,"10 mg/m^2 (n = 3), Grade 3–4",0 n (%)
same,TEAE: Flatulence,"10 mg/m^2 (n = 3), Grade 3–4",0 n (%)
same,TEAE: Hyperbilirubinemia,"10 mg/m^2 (n = 3), Grade 3–4",0 n (%)
